In ChEMBL document CHEMBL3991601, “The target landscape of clinical kinase drugs” (Science, 2017):
Activity calls are given as the source filed them.

Assays:
[1] = target: T1, Calcium/calmodulin-dependent protein kinase type IV (Homo sapiens, UniProt Q16566)
T1 sequence (Q16566 whole entry): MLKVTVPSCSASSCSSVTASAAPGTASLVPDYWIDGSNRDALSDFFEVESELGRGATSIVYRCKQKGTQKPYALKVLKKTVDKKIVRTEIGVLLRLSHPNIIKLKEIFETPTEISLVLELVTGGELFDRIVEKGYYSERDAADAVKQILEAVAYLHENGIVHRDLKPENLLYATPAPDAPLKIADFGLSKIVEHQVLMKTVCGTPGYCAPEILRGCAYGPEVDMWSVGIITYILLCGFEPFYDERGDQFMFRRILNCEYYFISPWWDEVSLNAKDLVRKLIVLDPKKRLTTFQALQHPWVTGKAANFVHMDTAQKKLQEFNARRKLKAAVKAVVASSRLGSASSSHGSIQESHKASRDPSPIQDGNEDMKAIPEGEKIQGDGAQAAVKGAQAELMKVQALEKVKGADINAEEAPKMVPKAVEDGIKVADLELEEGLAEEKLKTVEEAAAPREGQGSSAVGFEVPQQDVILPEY

[2] = target: Structural maintenance of chromosomes protein 2 (Homo sapiens, UniProt O95347)
[3] = target: T2, Serine/threonine-protein kinase Nek1 (Homo sapiens, UniProt Q96PY6)
T2 sequence (Q96PY6 whole entry): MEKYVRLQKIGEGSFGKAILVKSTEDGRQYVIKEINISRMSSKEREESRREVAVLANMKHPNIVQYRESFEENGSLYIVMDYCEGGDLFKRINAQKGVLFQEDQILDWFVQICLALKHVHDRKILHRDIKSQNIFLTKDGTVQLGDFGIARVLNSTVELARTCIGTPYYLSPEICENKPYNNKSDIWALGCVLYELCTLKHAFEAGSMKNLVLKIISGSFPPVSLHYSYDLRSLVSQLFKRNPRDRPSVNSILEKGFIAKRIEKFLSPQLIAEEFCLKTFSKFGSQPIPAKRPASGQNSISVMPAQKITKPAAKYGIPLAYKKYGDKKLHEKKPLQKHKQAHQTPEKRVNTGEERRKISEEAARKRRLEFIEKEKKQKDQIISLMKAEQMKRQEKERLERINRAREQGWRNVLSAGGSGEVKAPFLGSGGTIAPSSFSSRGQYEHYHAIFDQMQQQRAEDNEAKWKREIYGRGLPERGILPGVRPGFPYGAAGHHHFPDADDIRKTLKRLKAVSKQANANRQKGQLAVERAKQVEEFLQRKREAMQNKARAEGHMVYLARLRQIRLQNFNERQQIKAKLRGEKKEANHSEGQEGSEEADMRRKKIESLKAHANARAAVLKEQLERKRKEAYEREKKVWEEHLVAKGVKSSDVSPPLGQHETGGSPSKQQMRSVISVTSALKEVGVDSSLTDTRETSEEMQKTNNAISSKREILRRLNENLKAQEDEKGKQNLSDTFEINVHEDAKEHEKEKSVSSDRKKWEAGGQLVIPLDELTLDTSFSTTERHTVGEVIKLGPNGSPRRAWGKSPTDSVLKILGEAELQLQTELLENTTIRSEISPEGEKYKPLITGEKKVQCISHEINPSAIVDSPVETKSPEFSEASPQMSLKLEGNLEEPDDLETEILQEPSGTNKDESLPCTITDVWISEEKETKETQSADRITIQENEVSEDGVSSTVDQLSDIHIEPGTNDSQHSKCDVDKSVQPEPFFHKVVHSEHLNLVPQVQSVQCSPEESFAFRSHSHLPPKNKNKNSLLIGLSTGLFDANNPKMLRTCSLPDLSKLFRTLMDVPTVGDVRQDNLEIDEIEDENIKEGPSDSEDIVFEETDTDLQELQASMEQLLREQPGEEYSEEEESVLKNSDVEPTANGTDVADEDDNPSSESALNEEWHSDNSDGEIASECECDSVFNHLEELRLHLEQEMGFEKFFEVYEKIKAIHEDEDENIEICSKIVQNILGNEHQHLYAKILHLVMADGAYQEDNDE

[4] = target: T3, Serine/threonine-protein kinase TAO2 (Homo sapiens, UniProt Q9UL54)
T3 sequence (Q9UL54 whole entry): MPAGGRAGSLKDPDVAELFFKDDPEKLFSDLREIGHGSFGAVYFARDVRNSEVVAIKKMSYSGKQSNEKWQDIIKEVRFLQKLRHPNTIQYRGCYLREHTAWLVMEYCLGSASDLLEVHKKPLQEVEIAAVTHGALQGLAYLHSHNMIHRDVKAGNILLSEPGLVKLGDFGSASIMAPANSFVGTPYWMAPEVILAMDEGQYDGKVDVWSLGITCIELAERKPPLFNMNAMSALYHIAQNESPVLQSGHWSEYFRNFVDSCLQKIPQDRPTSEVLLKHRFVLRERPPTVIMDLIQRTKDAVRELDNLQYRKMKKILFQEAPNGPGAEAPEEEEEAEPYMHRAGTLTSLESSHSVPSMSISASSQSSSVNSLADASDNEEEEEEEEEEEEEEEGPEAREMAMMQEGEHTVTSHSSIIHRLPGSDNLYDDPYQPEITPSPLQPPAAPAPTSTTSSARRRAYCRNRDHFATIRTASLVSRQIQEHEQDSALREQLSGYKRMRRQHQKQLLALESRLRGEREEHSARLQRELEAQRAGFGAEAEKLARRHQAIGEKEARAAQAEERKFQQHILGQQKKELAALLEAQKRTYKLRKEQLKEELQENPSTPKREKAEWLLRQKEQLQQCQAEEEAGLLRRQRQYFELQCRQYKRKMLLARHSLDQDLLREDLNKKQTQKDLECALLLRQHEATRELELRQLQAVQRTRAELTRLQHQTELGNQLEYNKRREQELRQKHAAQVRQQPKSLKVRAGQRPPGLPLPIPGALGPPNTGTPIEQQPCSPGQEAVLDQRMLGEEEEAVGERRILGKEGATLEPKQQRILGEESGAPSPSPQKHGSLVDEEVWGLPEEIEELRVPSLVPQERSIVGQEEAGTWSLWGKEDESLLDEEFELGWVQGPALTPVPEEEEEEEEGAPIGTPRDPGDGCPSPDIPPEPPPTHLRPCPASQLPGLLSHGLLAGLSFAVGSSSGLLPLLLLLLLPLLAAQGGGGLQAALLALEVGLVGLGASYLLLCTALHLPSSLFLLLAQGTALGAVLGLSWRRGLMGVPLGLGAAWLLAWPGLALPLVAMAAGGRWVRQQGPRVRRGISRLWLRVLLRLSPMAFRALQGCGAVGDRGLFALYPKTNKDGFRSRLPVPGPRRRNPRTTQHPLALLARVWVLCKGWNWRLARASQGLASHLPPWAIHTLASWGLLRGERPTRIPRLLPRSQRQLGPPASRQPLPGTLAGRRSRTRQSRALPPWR
Also: in the data inactive means no Kd found up to 30 µM.

Chain of Structural maintenance of chromosomes protein 2 (O95347 whole entry): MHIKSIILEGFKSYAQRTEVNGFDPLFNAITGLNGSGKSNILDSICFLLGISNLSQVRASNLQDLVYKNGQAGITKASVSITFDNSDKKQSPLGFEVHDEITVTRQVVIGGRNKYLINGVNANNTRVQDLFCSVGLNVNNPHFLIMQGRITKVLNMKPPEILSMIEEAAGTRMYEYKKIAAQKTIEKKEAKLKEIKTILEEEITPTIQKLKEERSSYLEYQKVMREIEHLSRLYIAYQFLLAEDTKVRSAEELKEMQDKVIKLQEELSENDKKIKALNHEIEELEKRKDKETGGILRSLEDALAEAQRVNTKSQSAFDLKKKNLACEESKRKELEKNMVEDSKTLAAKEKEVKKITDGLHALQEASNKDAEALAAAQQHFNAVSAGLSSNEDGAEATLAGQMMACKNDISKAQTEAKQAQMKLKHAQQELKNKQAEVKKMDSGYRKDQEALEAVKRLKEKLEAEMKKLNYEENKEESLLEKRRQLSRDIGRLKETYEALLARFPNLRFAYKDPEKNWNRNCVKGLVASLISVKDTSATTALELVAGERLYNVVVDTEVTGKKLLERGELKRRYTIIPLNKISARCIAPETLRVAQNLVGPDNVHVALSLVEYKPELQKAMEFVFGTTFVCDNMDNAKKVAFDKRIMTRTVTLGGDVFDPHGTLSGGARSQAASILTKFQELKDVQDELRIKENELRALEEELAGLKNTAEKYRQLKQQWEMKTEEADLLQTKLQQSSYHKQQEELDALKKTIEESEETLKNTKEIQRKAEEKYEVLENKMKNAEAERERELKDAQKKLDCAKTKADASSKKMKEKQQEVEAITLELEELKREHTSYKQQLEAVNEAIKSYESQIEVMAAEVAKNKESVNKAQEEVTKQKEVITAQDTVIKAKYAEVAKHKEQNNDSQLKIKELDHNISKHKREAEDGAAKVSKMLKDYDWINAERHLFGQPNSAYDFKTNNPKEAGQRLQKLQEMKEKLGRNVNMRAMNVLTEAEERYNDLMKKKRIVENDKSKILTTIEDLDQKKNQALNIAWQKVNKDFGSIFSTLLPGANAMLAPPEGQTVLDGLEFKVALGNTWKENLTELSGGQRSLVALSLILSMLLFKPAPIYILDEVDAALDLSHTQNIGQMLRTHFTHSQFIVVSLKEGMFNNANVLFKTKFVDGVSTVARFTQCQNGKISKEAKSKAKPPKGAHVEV

Kd [1] | Kd [2] | Kd [3] | Kd [4] | SMILES
> 30 µM (inactive) | > 30 µM (inactive) | > 30 µM (inactive) | > 30 µM (inactive) | CO[C@H]1C[C@@H]2CC[C@@H](C)[C@@](O)(O2)C(=O)C(=O)N2CCCC[C@H]2C(=O)O[C@H]([C@H](C)C[C@@H]2CC[C@@H](OP(C)(C)=O)[C@H](OC)C2)CC(=O)[C@H](C)/C=C(\C)[C@@H](O)[C@@H](OC)C(=O)[C@H](C)C[C@H](C)/C=C/C=C/C=C/1C [RIDAFOROLIMUS]
> 30 µM (inactive) | > 30 µM (inactive) | > 30 µM (inactive) | > 30 µM (inactive) | N#CC1(c2ccc(NC(=O)c3cccnc3NCc3ccncc3)cc2)CCCC1 [RIVOCERANIB]
> 30 µM (inactive) | > 30 µM (inactive) | > 30 µM (inactive) | > 30 µM (inactive) | O=c1[nH]ccc2cc(OC3CCNCC3)ccc12 [SAR-407899 FREE BASE]
> 30 µM (inactive) | > 30 µM (inactive) | > 30 µM (inactive) | > 30 µM (inactive) | Cn1cc(-c2cnn3c(N)c(Br)c([C@@H]4CCCNC4)nc23)cn1 [SCH-900776]
> 30 µM (inactive) | > 30 µM (inactive) | > 30 µM (inactive) | > 30 µM (inactive) | CO[C@H]1C[C@@H]2CC[C@@H](C)[C@@](O)(O2)C(=O)C(=O)N2CCCC[C@H]2C(=O)O[C@H]([C@H](C)C[C@@H]2CC[C@@H](O)[C@H](OC)C2)CC(=O)[C@H](C)/C=C(\C)[C@@H](O)[C@@H](OC)C(=O)[C@H](C)C[C@H](C)/C=C/C=C/C=C/1C [SIROLIMUS]
> 30 µM (inactive) | > 30 µM (inactive) | > 30 µM (inactive) | > 30 µM (inactive) | CCS(=O)(=O)c1cccc(-c2cc(C(=O)NC3CCN(C)CC3)c(C)c3[nH]c4ncc(C)cc4c23)c1 [TAK-901]
> 30 µM (inactive) | > 30 µM (inactive) | > 30 µM (inactive) | > 30 µM (inactive) | CO[C@H]1C[C@@H]2CC[C@@H](C)[C@@](O)(O2)C(=O)C(=O)N2CCCC[C@H]2C(=O)O[C@H]([C@H](C)C[C@@H]2CC[C@@H](OC(=O)C(C)(CO)CO)[C@H](OC)C2)CC(=O)[C@H](C)/C=C(\C)[C@@H](O)[C@@H](OC)C(=O)[C@H](C)C[C@H](C)/C=C/C=C/C=C/1C [TEMSIROLIMUS]
> 30 µM (inactive) | > 30 µM (inactive) | > 30 µM (inactive) | > 30 µM (inactive) | COc1cc2c(Nc3ccc(Cl)c(Cl)c3F)ncnc2cc1OC[C@@H]1C[C@@H]2CN(C)C[C@@H]2C1 [TESEVATINIB]
> 30 µM (inactive) | > 30 µM (inactive) | > 30 µM (inactive) | > 30 µM (inactive) | O=C(Cc1ccc(-c2ccc(OCCN3CCOCC3)cc2)cn1)NCc1ccccc1 [TIRBANIBULIN]
> 30 µM (inactive) | > 30 µM (inactive) | > 30 µM (inactive) | > 30 µM (inactive) | O=C1NC(=O)[C@@H](c2cn3c4c(cccc24)CCC3)[C@@H]1c1c[nH]c2ccccc12 [TIVANTINIB]
> 30 µM (inactive) | > 30 µM (inactive) | > 30 µM (inactive) | > 30 µM (inactive) | C[C@@H](NC(=O)c1ncnc(N)c1Cl)c1ncc(C(=O)Nc2cc(C(F)(F)F)c(Cl)cn2)s1 [TOVORAFENIB]
> 30 µM (inactive) | > 30 µM (inactive) | > 30 µM (inactive) | > 30 µM (inactive) | CC(C)c1cc(CNc2nc(Nc3cc(C4CC4)[nH]n3)cc(N3CCN(C)CC3)n2)on1 [XL-228]
> 30 µM (inactive) | > 30 µM (inactive) | > 30 µM (inactive) | > 30 µM (inactive) | C[C@@H](N)c1ccc(C(=O)Nc2ccnc3[nH]ccc23)cc1 [Y-39983]
> 30 µM (inactive) | > 30 µM (inactive) | > 30 µM (inactive) | 1.07 µM (active) | CN1C/C=C/CCOc2cccc(c2)-c2ccnc(n2)Nc2cccc(c2)C1 [ZOTIRACICLIB]

SMILES | Kd [1] | Kd [2] | Kd [3] | Kd [4]
CN1CCN(CCOc2cc(OC3CCOCC3)c3c(Nc4c(Cl)ccc5c4OCO5)ncnc3c2)CC1 [SARACATINIB] | > 30 µM (inactive) | > 30 µM (inactive) | > 30 µM (inactive) | > 30 µM (inactive)
Cc1cc(Nc2ncnc3ccc(NC4=NC(C)(C)CO4)cc23)ccc1Oc1ccn2ncnc2c1 [TUCATINIB] | > 30 µM (inactive) | > 30 µM (inactive) | > 30 µM (inactive) | > 30 µM (inactive)
